Test results: patent US20070092474A1, “Carnitine salt, preliposome which contains it and dermocosmetic formula for topical use based upon said carnitine salt” (priority 2003, published 2007)
Several values for one entry are separate records, joined by “and”; a condition that tells them apart may be missing. Equal values may be shown once.

Tests used:
[1] = system: skin blemishes deriving from cellulite and from localised adiposity; test: Overall evaluation of the efficiency of the cosmetic product adjuvating the reduction of skin blemishes; assay type: in vivo, female volunteers; conditions: versus just carnitine (II) and just hydroxy citric acid (III) in the same tests
Description: (§1) A dermatological test was carried out on 25 female volunteers between 18 and 65 years of age, with the backing of the Department of Physiological and Pharmacological Sciences of the university of Pavia. The investigation aimed to check the modification of three anatomical-physiological parameters, qualifying the unaesthetic-functional aspect connected to the manifestation of so-called cellulite and subcutaneous hypertriglyceridaemia: measurement of the skin folds, measurement of the circumference of the thighs, thermographic skin measurement.
(§2) The test stretched out over 60 days with the continual daily application of the aforementioned preparation of cosmetic gel. The measurements were carried out after 15, 30 and 60 days. The detail of the test protocol and of the results obtained is shown hereafter.
Evaluation of the Efficiency of a Cosmetic Product Adjuvating the Reduction of the Skin Blemishes Deriving from Cellulite and from Localised Adiposity.
The present experimentation allows it to be evaluated whether the cosmetic product being studied carries out an action adjuvating the reduction of the skin blemishes deriving from cellulite and from localised adiposity. […]

[2] = system: skin blemishes caused by cellulite and localised adiposity; test: Liquid crystal contact thermography of the thighs, clinical score of cellulite stage; assay type: in vivo, female volunteers; design: key: 9: IV SERIOUS; 8: IV AVERAGE; 7: IV INITIAL; 6: III SERIOUS; 5: III AVERAGE; 4: III INITIAL; 3: II SERIOUS; 2: II AVERAGE; 1: II INITIAL; conditions: clinical score per volunteer, MEDIA = mean
Description: as §1, §2
25 female volunteers aged between 18 and 65, with the presence of skin blemishes caused by cellulite and localised adiposity, were selected according to the following criteria: good general state of health, absence of skin pathologies, not being under medication, commitment not to vary the normal daily routine, no medical history of atopy.
The samples were tested by uniformly applying them on “Glute SX Glute DJ (Femoris Posto SX Femoris Posto DX Femoris Ant. SX Femoris Ant. DX” every day at least once per day for the entire duration of the test.
At the time of inclusion in the study and during the subsequent checks after 15 days (T15), after 30 days (T30) and after 60 days (T60) of treatment the following instrumental measurements were taken: • plicometry (through a plicometer) • thigh circumference (through a measuring tape broken into millimetres) • contact thermography (through liquid crystal thermographic plates).
For its part, thermography allows the extension and the gravity of the microcirculatory skin damage and, consequently, the subcutaneous damage, to be evaluated based upon the regional skin temperature variations. Such temperature variations reveal the presence of subschemic areas (cold areas, due to regional hypothermia) or of phenomena of capillary-venous stasis (hot areas). The diagnostic properties of thermography are relative to the recognition of maldistribution of microcirculation. In particular, “liquid crystal contact thermography” was used, in which the property of cholesteric liquid crystals (of which the plates are made up) of modifying their spatial arrangement according to the temperature is exploited; each spatial modification corresponds to a different refraction of the light rays which thus assume different colours according to the incidence of the light on the faces of the cholesteric microcrystals: in practice, when the thermographic plates are placed upon the skin of the zone to be investigated, these assume different colourations according to the skin temperature. Conventionally, the thermographic images observed during the course of the different stages of evolution of the Edematous fibrosclerotic panniculopathy from stasis of the lower limbs can be classified in four, or more, thermographic stages; the latter approximately correspond to the gravity of the four istologic stages in which the moments of evolution of the panniculosis are divided.

carnitine hydroxycitrate [carnitine hydroxy citrate]
Comparison of the salt with the two reactants by themselves [1]: provides the best results
LEFT THIGH THERMOGRAPHY 1/3 T0 [2]: 5 (9×) and 4 (3×) and 7 (4×) and 2 and 6 (7×) and 3
LEFT THIGH THERMOGRAPHY 1/3 T0 ([2]; mean): 5.3
LEFT THIGH THERMOGRAPHY 1/3 T15 [2]: 5 (9×) and 4 (5×) and 3 (3×) and 7 (2×) and 2 and 6 (5×)
LEFT THIGH THERMOGRAPHY 1/3 T15 ([2]; mean): 4.8
LEFT THIGH THERMOGRAPHY 1/3 T30 [2]: 2 (7×) and 4 (10×) and 3 (2×) and 6 (3×) and 5 (3×)
LEFT THIGH THERMOGRAPHY 1/3 T30 ([2]; mean): 3.7
LEFT THIGH THERMOGRAPHY 1/3 T60 [2]: 2 (11×) and 3 (7×) and 4 (4×) and 5 (2×) and 6
LEFT THIGH THERMOGRAPHY 1/3 T60 ([2]; mean): 3.0
LEFT THIGH THERMOGRAPHY 2/3 T0 [2]: 4 (5×) and 5 (10×) and 3 (3×) and 7 and 2 and 6 (5×)
LEFT THIGH THERMOGRAPHY 2/3 T0 ([2]; mean): 4.7
LEFT THIGH THERMOGRAPHY 2/3 T15 [2]: 3 (7×) and 4 (11×) and 5 (3×) and 6 (3×) and 2
LEFT THIGH THERMOGRAPHY 2/3 T15 ([2]; mean): 4.0
LEFT THIGH THERMOGRAPHY 2/3 T30 [2]: 2 (6×) and 3 (12×) and 4 (6×) and 5
LEFT THIGH THERMOGRAPHY 2/3 T30 ([2]; mean): 3.1
LEFT THIGH THERMOGRAPHY 2/3 T60 [2]: 2 (9×) and 3 (11×) and 4 (4×) and 1
LEFT THIGH THERMOGRAPHY 2/3 T60 ([2]; mean): 2.7
LEFT THIGH THERMOGRAPHY 3/3 T0 [2]: 3 (3×) and 5 (3×) and 4 (16×) and 2 (2×) and 7
LEFT THIGH THERMOGRAPHY 3/3 T0 ([2]; mean): 4.0
LEFT THIGH THERMOGRAPHY 3/3 T15 [2]: 3 (7×) and 4 (11×) and 5 (3×) and 2 (4×)
LEFT THIGH THERMOGRAPHY 3/3 T15 ([2]; mean): 3.5
LEFT THIGH THERMOGRAPHY 3/3 T30 [2]: 2 (7×) and 3 (11×) and 4 (5×) and 1 (2×)
LEFT THIGH THERMOGRAPHY 3/3 T30 ([2]; mean): 2.8
LEFT THIGH THERMOGRAPHY 3/3 T60 [2]: 1 (3×) and 3 (11×) and 2 (10×) and 4
LEFT THIGH THERMOGRAPHY 3/3 T60 ([2]; mean): 2.4
RIGHT THIGH THERMOGRAPHY 1/3 T0 [2]: 5 (10×) and 4 (3×) and 7 (3×) and 3 (2×) and 6 (6×) and 8
RIGHT THIGH THERMOGRAPHY 1/3 T0 ([2]; mean): 5.3
RIGHT THIGH THERMOGRAPHY 1/3 T15 [2]: 5 (9×) and 4 (6×) and 7 (3×) and 3 (2×) and 6 (5×)
RIGHT THIGH THERMOGRAPHY 1/3 T15 ([2]; mean): 5.0
RIGHT THIGH THERMOGRAPHY 1/3 T30 [2]: 2 (7×) and 4 (9×) and 3 (2×) and 5 (4×) and 6 (2×) and 7
RIGHT THIGH THERMOGRAPHY 1/3 T30 ([2]; mean): 3.8
RIGHT THIGH THERMOGRAPHY 1/3 T60 [2]: 2 (11×) and 3 (6×) and 4 (5×) and 5 (2×) and 6
RIGHT THIGH THERMOGRAPHY 1/3 T60 ([2]; mean): 3.0
RIGHT THIGH THERMOGRAPHY 2/3 T0 [2]: 4 (6×) and 5 (11×) and 7 and 3 (3×) and 6 (4×)
RIGHT THIGH THERMOGRAPHY 2/3 T0 ([2]; mean): 4.8
RIGHT THIGH THERMOGRAPHY 2/3 T15 [2]: 3 (5×) and 4 (12×) and 5 (4×) and 6 (3×) and 2
RIGHT THIGH THERMOGRAPHY 2/3 T15 ([2]; mean): 4.1
RIGHT THIGH THERMOGRAPHY 2/3 T30 [2]: 2 (4×) and 3 (13×) and 4 (7×) and 5
RIGHT THIGH THERMOGRAPHY 2/3 T30 ([2]; mean): 3.2
RIGHT THIGH THERMOGRAPHY 2/3 T60 [2]: 2 (8×) and 3 (12×) and 4 (4×) and 1
RIGHT THIGH THERMOGRAPHY 2/3 T60 ([2]; mean): 2.8
RIGHT THIGH THERMOGRAPHY 3/3 T0 [2]: 3 (4×) and 5 (4×) and 4 (15×) and 2 and 7
RIGHT THIGH THERMOGRAPHY 3/3 T0 ([2]; mean): 4.0
RIGHT THIGH THERMOGRAPHY 3/3 T15 [2]: 3 (7×) and 4 (11×) and 5 (3×) and 2 (4×)
RIGHT THIGH THERMOGRAPHY 3/3 T15 ([2]; mean): 3.5
RIGHT THIGH THERMOGRAPHY 3/3 T30 [2]: 2 (7×) and 3 (10×) and 4 (7×) and 1
RIGHT THIGH THERMOGRAPHY 3/3 T30 ([2]; mean): 2.9
RIGHT THIGH THERMOGRAPHY 3/3 T60 [2]: 1 (3×) and 3 (12×) and 2 (9×) and 4
RIGHT THIGH THERMOGRAPHY 3/3 T60 ([2]; mean): 2.4
